Assay results: ChEMBL document CHEMBL1909046, “DrugMatrix in vitro pharmacology data”

Experiments:
Vasopressin V1a receptor = Vasopressin V1a receptor (Homo sapiens, UniProt P37288); assay type: cell membranes, Membrane; settings: hek293; note: in other assays of this panel Not Active means under 50% inhibition at 10 µM
[1] = DRUGMATRIX: GABAA, Chloride Channel, TBOB radioligand binding (ligand: [3H] TBOB); assay type: cell membranes, Rattus norvegicus, Wistar, Cerebral cortex, Membrane; settings: Not Active = under 50% inhibition at 10 µM
Cytochrome P450 2C9 = Cytochrome P450 2C9 (Homo sapiens, UniProt P11712); settings: bti-tn-5b1-4; note: in other assays of this panel Not Active means under 50% inhibition at 10 µM
Sequence of Cytochrome P450 2C9 (P11712 whole entry): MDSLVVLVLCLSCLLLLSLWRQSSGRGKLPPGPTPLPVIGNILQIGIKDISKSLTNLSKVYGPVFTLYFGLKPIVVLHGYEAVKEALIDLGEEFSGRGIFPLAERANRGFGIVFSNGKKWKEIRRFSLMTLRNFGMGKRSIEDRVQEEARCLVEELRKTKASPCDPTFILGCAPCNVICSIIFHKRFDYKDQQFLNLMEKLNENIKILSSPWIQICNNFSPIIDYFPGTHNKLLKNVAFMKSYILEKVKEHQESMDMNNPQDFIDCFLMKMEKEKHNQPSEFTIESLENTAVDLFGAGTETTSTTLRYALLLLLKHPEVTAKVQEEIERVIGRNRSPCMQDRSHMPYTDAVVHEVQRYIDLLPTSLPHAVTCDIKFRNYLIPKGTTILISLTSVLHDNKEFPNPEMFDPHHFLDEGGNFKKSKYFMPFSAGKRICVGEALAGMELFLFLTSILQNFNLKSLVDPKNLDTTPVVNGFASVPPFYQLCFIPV

[2] = target: 5-hydroxytryptamine receptor 2B (Homo sapiens, UniProt P41595); assay type: cell membranes, CHO-K1, Membrane; note: in other assays of this panel Not Active means under 50% inhibition at 10 µM
Sequence of 5-hydroxytryptamine receptor 2B (P41595 whole entry): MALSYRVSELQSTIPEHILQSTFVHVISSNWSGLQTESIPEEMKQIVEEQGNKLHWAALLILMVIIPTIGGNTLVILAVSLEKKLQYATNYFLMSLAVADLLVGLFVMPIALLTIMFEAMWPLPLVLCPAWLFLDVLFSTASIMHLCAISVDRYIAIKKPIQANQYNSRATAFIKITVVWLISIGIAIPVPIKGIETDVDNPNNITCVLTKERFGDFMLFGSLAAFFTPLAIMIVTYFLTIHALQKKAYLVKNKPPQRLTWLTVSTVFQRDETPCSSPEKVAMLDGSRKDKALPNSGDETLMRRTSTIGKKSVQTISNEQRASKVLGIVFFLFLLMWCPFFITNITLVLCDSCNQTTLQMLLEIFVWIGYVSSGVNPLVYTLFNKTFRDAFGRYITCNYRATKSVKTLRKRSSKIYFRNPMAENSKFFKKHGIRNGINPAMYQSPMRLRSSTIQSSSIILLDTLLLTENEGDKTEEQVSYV

Cannabinoid receptor 1 = Cannabinoid receptor 1 (Homo sapiens, UniProt P21554); assay type: cell membranes, Membrane; settings: chem-1; note: in other assays of this panel Not Active means under 50% inhibition at 10 µM
Sequence of Cannabinoid receptor 1 (P21554 whole entry): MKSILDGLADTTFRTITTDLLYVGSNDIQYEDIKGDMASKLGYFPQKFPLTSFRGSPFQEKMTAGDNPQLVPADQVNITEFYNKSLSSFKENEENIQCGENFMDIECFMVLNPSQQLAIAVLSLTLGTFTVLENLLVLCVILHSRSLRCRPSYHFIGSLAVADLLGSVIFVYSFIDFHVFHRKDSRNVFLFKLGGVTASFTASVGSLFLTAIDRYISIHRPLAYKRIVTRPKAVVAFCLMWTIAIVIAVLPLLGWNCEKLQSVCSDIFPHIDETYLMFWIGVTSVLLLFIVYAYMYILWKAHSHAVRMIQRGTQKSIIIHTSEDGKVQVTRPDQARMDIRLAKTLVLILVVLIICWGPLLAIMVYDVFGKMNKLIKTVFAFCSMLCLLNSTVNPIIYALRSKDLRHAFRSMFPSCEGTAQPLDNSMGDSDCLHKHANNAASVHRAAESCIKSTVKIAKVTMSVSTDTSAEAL

[3] = DRUGMATRIX: beta-Lactamase enzyme inhibition (substrate: Nitrocefin); set-up: species or system Bacillus cereus; settings: Not Active = under 50% inhibition at 10 µM
[4] = target: Delta-type opioid receptor (Homo sapiens, UniProt P41143); assay type: cell membranes, HEK293, Membrane; settings: hek293; note: in other assays of this panel Not Active means under 50% inhibition at 10 µM
Sequence of Delta-type opioid receptor (P41143 whole entry): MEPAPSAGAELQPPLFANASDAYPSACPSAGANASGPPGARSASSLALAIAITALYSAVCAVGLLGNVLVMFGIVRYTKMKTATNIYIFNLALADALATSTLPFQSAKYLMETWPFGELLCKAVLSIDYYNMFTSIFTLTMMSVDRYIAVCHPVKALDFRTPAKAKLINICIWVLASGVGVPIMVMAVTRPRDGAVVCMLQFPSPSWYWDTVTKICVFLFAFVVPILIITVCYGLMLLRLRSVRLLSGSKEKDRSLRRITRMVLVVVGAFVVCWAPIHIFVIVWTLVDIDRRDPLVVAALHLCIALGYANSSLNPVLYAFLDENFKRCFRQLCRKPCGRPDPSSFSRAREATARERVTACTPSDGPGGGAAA

[5] = target: T1, Muscarinic acetylcholine receptor M5 (Homo sapiens, UniProt P08912); assay type: cell membranes, Membrane; settings: cho-k1; note: in other assays of this panel Not Active means under 50% inhibition at 10 µM
T1 sequence (P08912 whole entry): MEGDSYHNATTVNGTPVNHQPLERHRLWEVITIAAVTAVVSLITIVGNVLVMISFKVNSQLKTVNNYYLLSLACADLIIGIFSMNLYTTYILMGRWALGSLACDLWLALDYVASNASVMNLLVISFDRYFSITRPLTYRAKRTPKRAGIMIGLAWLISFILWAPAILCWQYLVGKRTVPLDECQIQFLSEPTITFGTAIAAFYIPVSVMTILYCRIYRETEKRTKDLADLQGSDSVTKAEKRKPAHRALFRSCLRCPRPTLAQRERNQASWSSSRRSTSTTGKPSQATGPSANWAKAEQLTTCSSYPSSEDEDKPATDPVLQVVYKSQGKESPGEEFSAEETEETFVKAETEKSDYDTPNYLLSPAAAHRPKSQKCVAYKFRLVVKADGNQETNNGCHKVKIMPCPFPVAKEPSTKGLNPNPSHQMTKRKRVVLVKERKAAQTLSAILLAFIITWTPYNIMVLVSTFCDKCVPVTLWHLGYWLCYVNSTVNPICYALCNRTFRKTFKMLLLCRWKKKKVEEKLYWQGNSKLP

Sequence of Vasopressin V1a receptor (P37288 whole entry): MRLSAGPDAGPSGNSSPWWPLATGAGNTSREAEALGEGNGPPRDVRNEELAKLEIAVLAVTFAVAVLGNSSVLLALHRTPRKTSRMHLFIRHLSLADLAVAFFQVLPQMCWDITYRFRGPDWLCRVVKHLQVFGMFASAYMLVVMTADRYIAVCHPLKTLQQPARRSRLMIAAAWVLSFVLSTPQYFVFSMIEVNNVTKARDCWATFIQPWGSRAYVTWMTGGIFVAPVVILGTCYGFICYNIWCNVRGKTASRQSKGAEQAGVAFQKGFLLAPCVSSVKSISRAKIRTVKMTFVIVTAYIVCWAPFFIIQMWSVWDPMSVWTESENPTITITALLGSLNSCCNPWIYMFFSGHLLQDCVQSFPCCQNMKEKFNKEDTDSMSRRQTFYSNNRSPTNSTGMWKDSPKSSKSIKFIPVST

Row | SMILES | IC50 (Vasopressin V1a receptor) | IC50 [1] | Ki [1] | IC50 (Cytochrome P450 2C9) | Ki (Cytochrome P450 2C9) | IC50 ([2]; cho-k1) | IC50 (Cannabinoid receptor 1) | IC50 [3] | Ki [3] | IC50 [4] | IC50 [5] | Ki ([2]; cho-k1) | IC50 ([2]; read-out: IC50) [nM] | Ki ([2]; read-out: Ki) [nM]
1 | CC(CCc1ccc(O)cc1)NCCc1ccc(O)c(O)c1 (centres undefined) [DOBUTAMINE] | Not Active | Not Active | Not Active | Not Active | Not Active | Not Active | Not Active | Not Active | Not Active | Not Active | Not Active | – | – | –
2 | CCn1cc(C(=O)O)c(=O)c2cc(F)c(N3CCNCC3)nc21 [ENOXACIN] | Not Active | Not Active | Not Active | Not Active | Not Active | Not Active | Not Active | Not Active | Not Active | Not Active | Not Active | – | – | –
3 | CCC(=O)O[C@H]1[C@H](O[C@@H]2[C@@H](C)[C@H](O[C@H]3C[C@@](C)(OC)[C@@H](O)[C@H](C)O3)[C@@H](C)C(=O)O[C@H](CC)[C@@](C)(O)[C@H](O)[C@@H](C)C(=O)[C@H](C)C[C@@]2(C)O)O[C@H](C)C[C@@H]1N(C)C [ERYTHROMYCIN PROPIONATE] | Not Active | Not Active | Not Active | Not Active | Not Active | Not Active | Not Active | Not Active | Not Active | Not Active | Not Active | – | – | –
4 | C=C(CC)C(=O)c1ccc(OCC(=O)O)c(Cl)c1Cl [ETHACRYNIC ACID] | Not Active | Not Active | Not Active | Not Active | Not Active | Not Active | Not Active | Not Active | Not Active | Not Active | Not Active | – | – | –
5 | C#C[C@]1(O)CC[C@H]2[C@@H]3CCc4cc(O)ccc4[C@H]3CC[C@@]21C [ETHINYL ESTRADIOL] | Not Active | Not Active | Not Active | Not Active | Not Active | Not Active | Not Active | Not Active | Not Active | Not Active | Not Active | – | – | –
6 | OCCO [ETHYLENE GLYCOL] | Not Active | Not Active | Not Active | Not Active | Not Active | Not Active | Not Active | Not Active | Not Active | Not Active | Not Active | – | – | –
7 | CC(=O)OCC(CCn1cnc2cnc(N)nc21)COC(C)=O [FAMCICLOVIR] | Not Active | Not Active | Not Active | Not Active | Not Active | Not Active | Not Active | Not Active | Not Active | Not Active | Not Active | – | – | –
8 | O=C(O)Cc1ccc(-c2ccccc2)cc1 [FELBINAC] | Not Active | Not Active | Not Active | Not Active | Not Active | Not Active | Not Active | Not Active | Not Active | Not Active | Not Active | – | – | –
9 | CC(C(=O)O)c1ccc(-c2ccccc2)c(F)c1 (centres undefined) [FLURBIPROFEN] | Not Active | Not Active | Not Active | Not Active | Not Active | Not Active | Not Active | Not Active | Not Active | Not Active | Not Active | – | – | –
10 | NC[C@@H]1O[C@H](O[C@H]2[C@@H](O)[C@H](O[C@@H]3[C@@H](O)[C@H](N)C[C@H](N)[C@H]3O[C@H]3O[C@H](CN)[C@@H](O)[C@H](O)[C@H]3N)O[C@@H]2CO)[C@H](N)[C@@H](O)[C@@H]1O [FRAMYCETIN] | Not Active | Not Active | Not Active | Not Active | Not Active | – | Not Active | Not Active | Not Active | Not Active | Not Active | Not Active | – | –
11 | C[C@H]([C@](O)(Cn1cncn1)c1ccc(F)cc1F)S(C)(=O)=O [GENACONAZOLE] | Not Active | Not Active | Not Active | Not Active | Not Active | Not Active | Not Active | Not Active | Not Active | Not Active | Not Active | – | – | –
12 | Cc1c(F)c(N2CCNC(C)C2)cc2c1c(=O)c(C(=O)O)cn2C1CC1 (centres undefined) [GREPAFLOXACIN] | Not Active | Not Active | Not Active | Not Active | Not Active | Not Active | Not Active | Not Active | Not Active | Not Active | Not Active | – | – | –
13 | N=C(N)N/N=C/c1c(Cl)cccc1Cl [GUANABENZ] | Not Active | Not Active | Not Active | Not Active | Not Active | – | Not Active | Not Active | Not Active | Not Active | Not Active | – | 97 | 62
14 | C[C@]12CCC(=O)C=C1CC[C@@H]1[C@@H]2[C@@H](O)C[C@@]2(C)[C@H]1CC[C@]2(O)C(=O)CO [HYDROCORTISONE] | Not Active | Not Active | Not Active | Not Active | Not Active | Not Active | Not Active | Not Active | Not Active | Not Active | Not Active | – | – | –
15 | NC[C@H]1O[C@H](O[C@H]2[C@H](O)[C@@H](O[C@H]3O[C@H](CO)[C@@H](O)[C@H](N)[C@H]3O)[C@H](N)C[C@@H]2N)[C@H](O)[C@@H](O)[C@@H]1O [KANAMYCIN] | Not Active | Not Active | Not Active | Not Active | Not Active | Not Active | Not Active | Not Active | Not Active | Not Active | Not Active | – | – | –
16 | CC(C(=O)O)c1ccc(CC2CCCC2=O)cc1 (centres undefined) [LOXOPROFEN] | Not Active | Not Active | Not Active | Not Active | Not Active | Not Active | Not Active | Not Active | Not Active | Not Active | Not Active | – | – | –
17 | Cc1cccc(Nc2ccccc2C(=O)O)c1C [MEFENAMIC ACID] | Not Active | Not Active | Not Active | Not Active | Not Active | Not Active | Not Active | Not Active | Not Active | Not Active | Not Active | – | – | –
18 | COc1ccccc1OCC(O)COC(N)=O (centres undefined) [METHOCARBAMOL] | Not Active | Not Active | Not Active | Not Active | Not Active | Not Active | Not Active | Not Active | Not Active | Not Active | Not Active | – | – | –
19 | COC(=O)c1ccccc1O [METHYL SALICYLATE] | Not Active | Not Active | Not Active | Not Active | Not Active | Not Active | Not Active | Not Active | Not Active | Not Active | Not Active | – | – | –
20 | COc1ccc2cc(CCC(C)=O)ccc2c1 [NABUMETONE] | Not Active | Not Active | Not Active | Not Active | Not Active | Not Active | Not Active | Not Active | Not Active | Not Active | Not Active | – | – | –
21 | CNC(=C[N+](=O)[O-])NCCSCc1csc(CN(C)C)n1 [NIZATIDINE] | Not Active | Not Active | Not Active | Not Active | Not Active | Not Active | Not Active | Not Active | Not Active | Not Active | Not Active | – | – | –
22 | C[C@]12C/C(=C/O)C(=O)C[C@@H]1CC[C@@H]1[C@@H]2CC[C@@]2(C)[C@H]1CC[C@]2(C)O [OXYMETHOLONE] | Not Active | Not Active | Not Active | Not Active | Not Active | Not Active | Not Active | Not Active | Not Active | Not Active | Not Active | – | – | –
23 | CC(C)(CO)C(O)C(=O)NCCCO (centres undefined) [PANTHENOL] | Not Active | Not Active | Not Active | Not Active | Not Active | Not Active | Not Active | Not Active | Not Active | Not Active | Not Active | – | – | –
